Assay results from patent publication US20140010901A1, “BLEOMYCIN HYDROLASE PRODUCTION PROMOTOR” (Shiseido Company, Ltd., priority 2011, published 2014).
Entries after “also recorded” stand apart in the source; their conditions may differ.

Legend:
[1] = test system: BH gene; test: Cytokine-mediated regulation of BH gene expression, real-time RT-PCR (Experiment 6, FIG. 20A); format: cell-based, human; details: proliferating keratinocytes, 24 hours of incubation
Protocol: (§1) Normal human epidermal keratinocytes derived from neonatal epidermis (Kurabo Industries, Ltd., Osaka, Japan) were cultured in EpiLife medium (Cascade Biologics, Inc., Portland, Oreg.) containing low-concentration (0.03 mM) calcium and HKGS Growth Supplement (Cascade Biologics, Inc.). All cells were incubated at 37° C. in the presence of 5% CO2 and were used within 4 passages of subculturing. Cells were collected at 70% confluence, 100% confluence, 2 days after reaching confluence, and 2 days after reaching confluence in 2 mM calcium.
(§2) Transcription levels of BH and related factors were analyzed by quantitative real-time RT-PCR. Total RNA was extracted from cultured cells using Isogen (Nippon Gene Co., Ltd., Tokyo, Japan) in accordance with the instructions provided by the manufacturer. Reverse transcription of cDNA was carried out using SuperScript™ II (Invitrogen Corp., Carlsbad, Calif.). Real-time RT-PCR was carried out with the Light Cycler Raid Cycler System using the Light Cycler 480 SYBR Green I Master Mix (Roche Diagnostics GmbH) in accordance with the instructions provided by the manufacturer. Glyceraldehyde 3-phosphate dehydrogenase (GAPDH) was used as a housekeeping gene. Specificity of the amplified fragments was confirmed by quantitative analysis of melting curves by Light Cycler analytical software. The amounts of mRNA were standardized with respect to GAPDH mRNA, and finally indicated as a ratio to the mRNA of an untreated control.
Since BH is an NMF-producing enzyme, it has the possibility of being involved in the pathophysiology of AD. Accordingly, an investigation was conducted of the effects of Th1, Th2 and Th17 cytokines on BH gene expression. […] Similar results were obtained with differentiated keratinocytes (data not shown). In order to clarify the role of IFN-γ in the regulation of BH gene expression, a promoter assay was carried out to identify cytokine response elements. […] IFN-γ no longer suppressed promoter activity after this sequence was deleted (FIG. 20B). […]

[2] = test system: bleomycin hydrolase; test: Effect of cytokines on bleomycin hydrolase mRNA expression, quantitative PCR (Experiment 5, FIG. 14); format: cell-based, human; details: keratinocytes in the proliferation stage, 24 hours, IL-4 and TNFα 0.1-10 ng/ml, IFNγ 1.0-100 ng/ml
Protocol: as §1
The expression level of bleomycin hydrolase in keratinocytes was measured by quantitative PCR according to the following method using Light Cycler 480 (Roche Diagnostics GmbH, Mannheim, Germany). Light Cycler FastStart DNA Master CYBR Green I was used for the reagent. 0.6 μl aliquots of each of the following bleomycin hydrolase primers and 6.8 μl of water were added to 10 μl of SYBR Green I Master Mix followed by bringing to a total volume of 20 μl and carrying out PCR for 45 cycles consisting of 15 seconds at 95° C., 20 seconds at 55° C. and 20 seconds at 72° C. The results obtained were corrected by comparing with the results for a housekeeping gene, G3PDH.
IL-4 (final concentration: 0.1, 1.0 or 10 ng/ml), TNFα (final concentration: 0.1, 1.0 or 10 ng/ml) and IFNγ (final concentration: 1.0, 10 or 100 ng/ml) were respectively added to cultured keratinocytes in the proliferation stage, and after incubating for 24 hours, RNA was collected using Isogen. Expression of bleomycin hydrolase mRNA was measured by quantitative PCR. Based on the results shown in FIG. 14, a type of cytokine, interleukin-4 (IL-4) can be understood to down-regulate expression of bleomycin hydrolase.

[3] = test system: IRF-1; test: Effect of cytokines on IRF-1 mRNA expression in cultured keratinocytes (FIG. 22); format: cell-based, human
Protocol: as §2
(§3) An investigation was conducted of the cytokine-dependent regulation of these transcription factors.

[4] = test system: IRF-2; test: Effect of cytokines on IRF-2 mRNA expression in cultured keratinocytes (FIG. 22); format: cell-based, human
Protocol: as §2, §3

[5] = test system: MZF-1; test: Effect of cytokines on MZF-1 expression in cultured keratinocytes (FIG. 22); format: cell-based, human; details: most effective at IL-4 10 ng/ml
Protocol: as §2, §3

[6] = test system: Sp-1; test: Effect of cytokines on Sp-1 expression in cultured keratinocytes (FIG. 22); format: cell-based, human; details: most effective at IL-4 10 ng/ml
Protocol: as §2, §3

[7] = test system: bleomycin hydrolase; test: Screening for bleomycin hydrolase production promoting effects (RT-PCR, cultured human keratinocytes); format: cell-based; details: for expression of bleomycin hydrolase in comparison with the control: 50 μg/ml, human keratinocytes, 24 hours, control 0.1% 1,3-butylene glycol, FIG. 24; for production of bleomycin hydrolase, concentration dependence: general statement in description
Protocol: Human keratinocytes derived from normal foreskin (Cascade Biologics Inc., Portland, Md.) were cultured for 24 hours at […] in the presence of each of the herbal medicine extracts or pharmaceutical agents ([…] to 50 μg/ml) shown in FIG. 24 in keratinocyte growth medium consisting of MCDB medium supplemented with epidermal growth factor (0.1 ng/ml), insulin (10 μg/ml), hydrocortisone (0.5 μg/ml), bovine pituitary extract (0.4%), gentamycin (50 μg/ml) and amphotericin B (50 ng/ml). 0.1% 1,3-butylene glycol was used as a control.
Total RNA (500 ng) isolated from the human keratinocytes cultured in the manner described above was reverse-transcribed using random hexamers and Superscript II RNase H-transcriptase (Gibco-BRL Corp., Gaithersburg, Md.), followed by subjecting to PCR amplification using Taq DNA polymerase (Takara Corp., Kyoto, Japan) and the following primers. 40 amplification cycles were carried out consisting of 30 seconds at 94° C., 1 minute at 60° C. and 1 minute at 72° C.
The primers used in PCR are indicated below.

[8] = test system: BH promoter; test: BH promoter luciferase assay in transfected cultured keratinocytes (FIG. 20B); format: cell-based, human; details: keratinocytes transfected with pGL3-BH-616 containing IRF-1/2 binding sites, 24 hours
Protocol: Keratinocytes were cultured in a 12-well tissue culture plate at a density of 5×10^4 cells/well followed by transfection with 1 μg aliquots of each construct using FuGene HD Transfection Reagent (Roche Diagnostics AG, Basel, Switzerland). In order to correct for transfection efficiency, all cells were simultaneously transfected with pGL4.74 [hRluc-TK] vector (Promega Co.) containing sea pansy (Renilla) luciferase gene under the control of HSV-TK promoter. Unless specifically indicated otherwise, the cells were collected 24 hours after transfection and lysed using […] of Passive Lysis Buffer (Promega Co.) per well. Luciferase activity was analyzed using the Dual Luciferase Reporter Assay System (Promega Co.) and Auto Lumat Plus Luminoeter (Berthold Technologies GmbH, Bad Wilbad, Germany). Firefly luciferase activity was standardized for sea pansy luciferase activity. Three transfections were independently carried out for each construct and results were expressed as the mean value thereof.
Since BH is an NMF-producing enzyme, it has the possibility of being involved in the pathophysiology of AD. Accordingly, an investigation was conducted of the effects of Th1, Th2 and Th17 cytokines on BH gene expression. […] Similar results were obtained with differentiated keratinocytes (data not shown). […]

[9] = only at IL-4 100 ng/ml, FIG. 22B

| Compound | BH mRNA expression [1] | expression of bleomycin hydrolase mRNA [2] | expression of bleomycin hydrolase in comparison with the control [7] | production of bleomycin hydrolase, concentration dependence [7] | further results |
| --- | --- | --- | --- | --- | --- |
| IL-13: Th2 cytokine, human IL-13 manufactured by R&D Systems Inc. | did not demonstrate any direct action whatsoever |  |  |  |  |
| IL-4: Th2 cytokine, human IL-4 purchased from Peprotech EC | did not demonstrate any direct action whatsoever | down-regulates |  |  | expression of IRF-1 [3, 9]: significantly amplified; expression of IRF-2 [4, 9]: significantly amplified; expression of MZF-1 [5]: down-regulated most effectively; also recorded: down-regulated; expression of Sp-1 [6]: down-regulated most effectively; also recorded: down-regulated |
| O=C(O)CCCNS(=O)(=O)c1ccccc1 [benzenesulfonyl GABA, benzenesulfonyl γ-aminobutyric acid] |  |  | significantly increase | concentration-dependently promotes production |  |
| OC[C@@H](O)[C@@H](O)CO [erythritol] |  |  | significantly increase | concentration-dependently promotes production |  |
| IFN-γ: Th1 cytokine, human IFN-γ purchased from Peprotech EC | dose-dependent down-regulation; also recorded: remarkably suppressed; also recorded: significantly decreases | significantly increases |  |  | BH promoter activity (luciferase) [8]: down-regulated; IRF-1 mRNA expression ([3]; IFN-γ treatment, FIG. 22A): potent dose-dependent up-regulation; IRF-2 expression ([4]; IFN-γ treatment, FIG. 22A): up-regulated |
| TNFα |  | significantly increases |  |  |  |
